# Reference: PubChem BioAssay AID180 (DTP/NCI, 2004)
# “And” between values parts separate entries of the source, which are not always exact repeats. Equal values may be shown once.
# Tested on: BDF1 mice, Adenocarcinoma 755 s.c., tumor weight T/C
# Assay: NCI In Vivo Anticancer Drug Screen. Data for tumor model Adenocarcinoma 755 (subcutaneous) in B6D2F1 (BDF1) mice
# Conditions: endpoint: mean tumor weight, higher = larger tumour
# How it was run: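 Values express treated (T) relative to vehicle-dosed control (C) animals, based on survival or tumour size measured after compound treatment of mice bearing a transplanted tumour.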
# [1] = dose: 37.5 mg/kg/injection, schedule: Q01DX011 (ip), vehicle: saline
# [2] = dose: 75.0 mg/kg/injection, schedule: Q01DX011 (ip), vehicle: saline
# [3] = dose: 150.0 mg/kg/injection, schedule: Q01DX011 (ip), vehicle: saline
# [4] = dose: 50.0 mg/kg/injection, schedule: Q01DX011 (ip), vehicle: other
# [5] = dose: 100.0 mg/kg/injection, schedule: Q01DX011 (ip), vehicle: other
# [6] = dose: 25.0 mg/kg/injection, schedule: Q01DX011 (ip), vehicle: carboxymethylcellulose (CMC)
# [7] = dose: 25.0 mg/kg/injection, schedule: Q01DX011 (ip), vehicle: methylcellulose (MC)
# [8] = dose: 25.0 mg/kg/injection, schedule: Q01DX011 (ip), vehicle: other
# [9] = dose: 150.0 mg/kg/injection, schedule: Q01DX011 (ip), vehicle: other
# [10] = dose: 30.0 mg/kg/injection, schedule: Q01DX011 (ip), vehicle: carboxymethylcellulose (CMC)
# [11] = dose: 120.0 mg/kg/injection, schedule: Q01DX011 (ip), vehicle: carboxymethylcellulose (CMC)
structure (smiles),measurement,setting,value
Nc1ncnc2nc(/N=N/SCCC(=O)O)[nH]c12,T/C,[1],205 % of control
same,T/C,[2],123 % of control
same,T/C,[3],56 % of control
C=C1CN(CC)CCO1,T/C,[4],73 % of control
same,T/C,[5],72 % of control
O=C(O)C1CCCN1c1ncnc2nc[nH]c12 (stereo not drawn),T/C,"dose: 25.0 mg/kg/injection, schedule: Q01DX011 (ip), vehicle: saline",115 % of control
same,T/C,[2],104 % of control
CSc1ncc(C)c(Nc2ccc(Cl)cc2)n1,T/C,"dose: 15.0 mg/kg/injection, schedule: Q01DX011 (ip), vehicle: methylcellulose (MC)",102 % of control
Clc1ncnc2c1ncn2C1CCCCC1,T/C,"dose: 6.25 mg/kg/injection, schedule: Q01DX011 (ip), vehicle: carboxymethylcellulose (CMC)",91 % of control
same,T/C,"dose: 12.5 mg/kg/injection, schedule: Q01DX011 (ip), vehicle: carboxymethylcellulose (CMC)",73 % of control
same,T/C,[6],81 % of control
COc1cc(C(=O)[O][Hg][CH2]C2COC([CH2][Hg][O]C(=O)c3cc(OC)c(OC)c(OC)c3)CO2)cc(OC)c1OC (stereo not drawn),T/C,[6],61 % of control
CC(CN1CCN(C)CC1)CN1c2ccccc2Sc2ccc(C(F)(F)F)cc21 (stereo not drawn),T/C,"dose: 17.5 mg/kg/injection, schedule: Q01DX011 (ip), vehicle: methylcellulose (MC)",64 % of control
same,T/C,"dose: 35.0 mg/kg/injection, schedule: Q01DX011 (ip), vehicle: methylcellulose (MC)",52 % of control
same,T/C,"dose: 70.0 mg/kg/injection, schedule: Q01DX011 (ip), vehicle: methylcellulose (MC)",58 % of control
Nc1nc2nc(/N=N/SCCO)[nH]c2c(=O)[nH]1,T/C,[7],65 % of control
same,T/C,"dose: 50.0 mg/kg/injection, schedule: Q01DX011 (ip), vehicle: methylcellulose (MC)",39 % of control
NC1=CC(=O)c2cccnc2C1=O,T/C,"dose: 6.5 mg/kg/injection, schedule: Q01DX011 (ip), vehicle: water",111 % of control
same,T/C,"dose: 10.0 mg/kg/injection, schedule: Q01DX011 (ip), vehicle: water",87 % of control
same,T/C,"dose: 15.0 mg/kg/injection, schedule: Q01DX011 (ip), vehicle: water",69 % of control
O=C1N(Cl)C(=O)C(c2ccc(Cl)cc2)(c2ccc(Cl)cc2)N1Cl,T/C,"dose: 7.5 mg/kg/injection, schedule: Q#A X022 (ip), vehicle: saline",161 % of control
same,T/C,"dose: 15.0 mg/kg/injection, schedule: Q01DX011 (ip), vehicle: saline",100 % of control
same,T/C,"dose: 15.0 mg/kg/injection, schedule: Q#A X022 (ip), vehicle: saline",107 % of control
same,T/C,"dose: 30.0 mg/kg/injection, schedule: Q01DX011 (ip), vehicle: saline",52 % of control
same,T/C,"dose: 30.0 mg/kg/injection, schedule: Q#A X022 (ip), vehicle: saline",67 % of control
same,T/C,"dose: 45.0 mg/kg/injection, schedule: Q03DX004 (ip), vehicle: saline",73 % of control
same,T/C,"dose: 60.0 mg/kg/injection, schedule: Q01DX011 (ip), vehicle: saline",62 % of control
same,T/C,"dose: 60.0 mg/kg/injection, schedule: Q#A X022 (ip), vehicle: saline",28 % of control
same,T/C,"dose: 90.0 mg/kg/injection, schedule: Q03DX004 (ip), vehicle: saline",78 % of control
same,T/C,"dose: 120.0 mg/kg/injection, schedule: Q01DX011 (ip), vehicle: saline",23 % of control and 28 % of control
same,T/C,"dose: 180.0 mg/kg/injection, schedule: Q03DX004 (ip), vehicle: saline",61 % of control
same,T/C,"dose: 240.0 mg/kg/injection, schedule: Q01DX011 (ip), vehicle: saline",15 % of control
same,T/C,"dose: 360.0 mg/kg/injection, schedule: Q03DX004 (ip), vehicle: saline",36 % of control
same,T/C,"dose: 480.0 mg/kg/injection, schedule: Q01DX011 (ip), vehicle: saline",16 % of control
Nc1nc(N)c(N=O)c(Nc2ccc(I)cc2)n1,T/C,"dose: 0.5 mg/kg/injection, schedule: Q01DX011 (ip), vehicle: carboxymethylcellulose (CMC)",70 % of control
same,T/C,"dose: 1.0 mg/kg/injection, schedule: Q01DX011 (ip), vehicle: carboxymethylcellulose (CMC)",79 % of control and 80 % of control
same,T/C,"dose: 2.0 mg/kg/injection, schedule: Q01DX011 (ip), vehicle: carboxymethylcellulose (CMC)",62 % of control
same,T/C,"dose: 8.0 mg/kg/injection, schedule: Q01DX011 (ip), vehicle: carboxymethylcellulose (CMC)",34 % of control and 54 % of control and 59 % of control
same,T/C,"dose: 32.0 mg/kg/injection, schedule: Q01DX011 (ip), vehicle: carboxymethylcellulose (CMC)",25 % of control and 28 % of control and 40 % of control
same,T/C,"dose: 64.0 mg/kg/injection, schedule: Q01DX011 (ip), vehicle: carboxymethylcellulose (CMC)",17 % of control
same,T/C,"dose: 128.0 mg/kg/injection, schedule: Q01DX011 (ip), vehicle: carboxymethylcellulose (CMC)",10 % of control
O=C(O)C(=O)c1ccc(-c2ccccc2)cc1,T/C,"dose: 3.7 mg/kg/injection, schedule: Q01DX011 (ip), vehicle: carboxymethylcellulose (CMC)",99 % of control
same,T/C,"dose: 7.5 mg/kg/injection, schedule: Q01DX011 (ip), vehicle: carboxymethylcellulose (CMC)",100 % of control
same,T/C,"dose: 15.0 mg/kg/injection, schedule: Q01DX011 (ip), vehicle: carboxymethylcellulose (CMC)",87 % of control
O=C(OCC1OC(n2cnc3c(=S)nc[nH]c32)C(OC(=O)c2ccc([N+](=O)[O-])cc2)C1OC(=O)c1ccc([N+](=O)[O-])cc1)c1ccc([N+](=O)[O-])cc1 (stereo not drawn),T/C,"dose: 6.25 mg/kg/injection, schedule: Q01DX011 (ip), vehicle: other",70 % of control
same,T/C,"dose: 12.5 mg/kg/injection, schedule: Q01DX011 (ip), vehicle: other",85 % of control
same,T/C,[8],58 % of control and 68 % of control
same,T/C,[4],52 % of control and 76 % of control
same,T/C,"dose: 75.0 mg/kg/injection, schedule: Q01DX011 (ip), vehicle: other",8 % of control
same,T/C,[9],1 % of control
same,T/C,"dose: 200.0 mg/kg/injection, schedule: Q01DX011 (ip), vehicle: other",1 % of control and 6 % of control
same,T/C,"dose: 250.0 mg/kg/injection, schedule: Q01DX011 (ip), vehicle: other",3 % of control
C[C@]1(O)CC[C@H]2[C@@H]3CC[C@@H]4C[C@H](O)CC[C@]4(C)[C@@]3(F)[C@@H](O)C[C@@]21C,T/C,"dose: 25.0 mg/kg/injection, schedule: Q01DX011 (sc), vehicle: steriod suspending solution",73 % of control
same,T/C,"dose: 200.0 mg/kg/injection, schedule: Q01DX011 (sc), vehicle: steriod suspending solution",90 % of control
same,T/C,"dose: 400.0 mg/kg/injection, schedule: Q01DX011 (sc), vehicle: steriod suspending solution",87 % of control
Cc1ccc(/C=N/Nc2nc3c([nH]2)c(=O)n(C)c(=O)n3C)cc1,T/C,[10],95 % of control
same,T/C,"dose: 60.0 mg/kg/injection, schedule: Q01DX011 (ip), vehicle: carboxymethylcellulose (CMC)",115 % of control
same,T/C,[11],112 % of control
same,T/C,"dose: 240.0 mg/kg/injection, schedule: Q01DX011 (ip), vehicle: carboxymethylcellulose (CMC)",81 % of control
CCCCCn1cnc2c(SCc3ccccc3)nc(N)nc21,T/C,[1],68 % of control
same,T/C,[2],78 % of control
same,T/C,[3],77 % of control
CCNS(=O)(=O)c1ncnc2nc[nH]c12,T/C,"dose: 6.0 mg/kg/injection, schedule: Q01DX011 (ip), vehicle: other",94 % of control
same,T/C,"dose: 6.2 mg/kg/injection, schedule: Q01DX011 (ip), vehicle: methylcellulose (MC)",66 % of control
same,T/C,"dose: 12.0 mg/kg/injection, schedule: Q01DX011 (ip), vehicle: other",32 % of control
same,T/C,"dose: 12.5 mg/kg/injection, schedule: Q01DX011 (ip), vehicle: methylcellulose (MC)",36 % of control
same,T/C,[7],7 % of control and 10 % of control
same,T/C,[8],15 % of control
same,T/C,[4],5 % of control
same,T/C,[5],10 % of control
same,T/C,[9],5 % of control
Nc1ncnc2c1nc(Br)n2C1OC(CO)C(O)C1O (stereo not drawn),T/C,[10],117 % of control
same,T/C,[11],109 % of control
